Measured values as given in patent US8563730B2, “Pyrazole and fused pyrazole glucokinase activators” (Takeda San Diego, Inc., priority 2008, dated 2013).
Where two headings read alike, the source gives them in different places.

Biological target: T1, GK (glucokinase, residues 12-465) (Homo sapiens, UniProt P35557)
T1 construct: I.D. No. 1 corresponds to residues 12-465 of glucokinase; made in house; host or cells: DH10b-T1r E. coli
T1 sequence (P35557 with tags, fused parts or gaps isoform P35557-2): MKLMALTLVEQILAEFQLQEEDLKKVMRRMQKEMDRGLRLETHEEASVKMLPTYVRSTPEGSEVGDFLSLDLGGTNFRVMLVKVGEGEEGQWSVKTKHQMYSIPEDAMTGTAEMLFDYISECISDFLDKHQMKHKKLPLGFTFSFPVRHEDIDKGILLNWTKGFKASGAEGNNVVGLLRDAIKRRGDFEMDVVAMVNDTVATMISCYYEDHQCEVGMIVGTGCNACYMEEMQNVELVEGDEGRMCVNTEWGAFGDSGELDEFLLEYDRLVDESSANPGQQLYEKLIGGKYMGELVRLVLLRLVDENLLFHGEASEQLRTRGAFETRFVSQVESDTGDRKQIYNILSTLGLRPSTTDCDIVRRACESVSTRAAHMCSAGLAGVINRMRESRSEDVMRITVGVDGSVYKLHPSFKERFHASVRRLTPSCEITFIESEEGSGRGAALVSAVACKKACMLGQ
Assay: enzymatic glucokinase activity assay (ATP consumption, KinaseGlo luminescence)
Type: biochemical
Settings: 5 μM ATP, 5 mM Glucose, reported as bins; for EC50: Kact = concentration that displays 50% of the maximal increase in GK activity, 60 min, room temperature, read-out: pKact
Summary of the method: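 E. coli-expressed recombinant GK purified by two anion-exchange steps. Reaction in 25 mM Hepes pH 7.2, 10 mM MgCl2, 1 mM DTT, 5 μM ATP, 5 mM glucose, 2% DMSO, 60 min at room temperature. ATP consumption quantified by KinaseGlo luminescence; pKact and % ACTmax derived by non-linear curve fitting.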

[1] = calculated maximal gain in GK enzyme activity at a saturating concentration of the compound, read-out: % ACTmax
[2] = read-out: % ACTmax, calculated maximal gain in GK enzyme activity at a saturating concentration of the compound

Row | SMILES | EC50 [nM] | Emax [1] [%] | Emax [2] [%]
1 | COc1ccc2c(cnn2[C@H](CC2CCOCC2)C(=O)Nc2ccn(C)n2)c1S(=O)(=O)C1CC1 [Compound 110, (R)-2-(4-(cyclopropylsulfonyl)-5-methoxy-1H-indazol-1-yl)-N-(1-methyl-1H-pyrazol-3-yl)-3-(tetrahydro-2H-pyran-4-yl)propanamide] | ≥ 15800 | 106 to 110 | –
2 | Nc1cc(S(=O)(=O)C2CC2)c2cnn([C@H](CC3CCOCC3)C(=O)Nc3ncc(F)s3)c2n1 [Compound 111, (R)-2-(6-amino-4-(cyclopropylsulfonyl)-1H-pyrazol[3,4-b]pyridin-1-yl)-N-(5-fluorothiazol-2-yl)-3-(tetrahydro-2H-pyran-4-yl)propanamide] | 398 to 1260 | – | 106 to 110
3 | Nc1cc(S(=O)(=O)C2CC2)c2cnn([C@@H](CC3CCOCC3)C(=O)Nc3ncc(F)s3)c2n1 [Compound 112, (S)-2-(6-amino-4-(cyclopropylsulfonyl)-1H-pyrazol[3,4-b]pyridin-1-yl)-N-(5-fluorothiazol-2-yl)-3-(tetrahydro-2H-pyran-4-yl)propanamide] | ≤ 316 | – | 106 to 110
4 | O=C1CC[C@H](C[C@@H](C(=O)Nc2ncc(Cl)s2)n2ncc3c(S(=O)(=O)C4CC4)cccc32)C1 [Compound 113, (S)-N-(5-chlorothiazol-2-yl)-2-(4-(cyclopropylsulfonyl)-1H-indazol-1-yl)-3-((R)-3-oxocyclopentyl)propanamide] | 398 to 1260 | 101 to 105 | –
5 | O=C1CC[C@H](C[C@H](C(=O)Nc2ncc(Cl)s2)n2ncc3c(S(=O)(=O)C4CC4)cccc32)C1 [Compound 114, (R)-N-(5-chlorothiazol-2-yl)-2-(4-(cyclopropylsulfonyl)-1H-indazol-1-yl)-3-((R)-3-oxocyclopentyl)propanamide] | ≤ 316 | 101 to 105 | –
6 | Cc1ccc(NC(=O)C(CC2CCOCC2)n2ncc3c(S(=O)(=O)C4CC4)cccc32)nn1 (stereo not drawn) [Compound 116, 2-(4-(cyclopropylsulfonyl)-1H-indazol-1-yl)-N-(6-methylpyridazin-3-yl)-3-(tetrahydro-2H-pyran-4-yl)propanamide] | 3980 to 12600 | ≤ 90 | –
7 | NC(=O)c1ccc(NC(=O)C(CC2CCOCC2)n2ncc3c(S(=O)(=O)C4CC4)cc(F)cc32)nc1 (stereo not drawn) [Compound 117, 6-(2-(4-(cycloproypylsulfonyl)-6-fluoro-1H-indazol-1-yl)-3-(tetrahydro-2H-pyran-4-yl)propanamido)nicotinamide] | ≤ 316 | 106 to 110 | –
8 | Cn1ccc(NC(=O)[C@@H](CC2CCOCC2)n2ncc3c(S(=O)(=O)C4CC4)cccc32)n1 [Compound 118] | ≥ 15800 | – | ≤ 90
9 | Cn1ccc(NC(=O)[C@H](CC2CCOCC2)n2ncc3c(S(=O)(=O)C4CC4)cccc32)n1 [Compound 119] | 398 to 1260 | – | 90 to 100
10 | O=C(Nc1ccncn1)C(CC1CCOCC1)n1ncc2c(S(=O)(=O)C3CC3)cccc21 (stereo not drawn) [Compound 124, 2-(4-(cyclopropylsulfonyl)-1H-indazol-1-yl)-N-(pyrimidin-4-yl)-3-(tetrahydro-2H-pyran-4-yl)propanamide] | 3980 to 12600 | ≥ 111 | –
11 | N#Cc1cnc(NC(=O)C(CC2CCOCC2)n2ncc3c(S(=O)(=O)C4CC4)cccc32)s1 (stereo not drawn) [Compound 125, N-(5-cyanothiazol-2-yl)-2-(4-(cyclopropylsulfonyl)-1H-indazol-1-yl)-3-(tetrahydro-2H-pyran-4-yl)propanamide] | 1580 to 3160 | ≥ 111 | –
12 | N#Cc1cnc(NC(=O)C(CC2CCOCC2)n2ncc3c(S(=O)(=O)C4CC4)cccc32)nc1 (stereo not drawn) [Compound 126, N-(5-cyanopyrimidin-2-yl)-2-(4-(cyclopropylsulfonyl)-1H-indazol-1-yl)-3-(tetrahydro-2H-pyran-4-yl)propanamide] | ≥ 15800 | ≤ 90 | –
13 | Cc1cc(NC(=O)C(CC2CCOCC2)n2ncc3c(S(=O)(=O)C4CC4)cccc32)nn1C (stereo not drawn) [Compound 134, 2-(4-(cyclopropylsulfonyl)-1H-indazol-1-yl)-N-(1,5-dimethyl-1H-pyrazol-3-yl)-3-(tetrahydro-2H-pyran-4-yl)propanamide] | 1580 to 3160 | ≥ 111 | –
14 | N#Cc1ccc(NC(=O)C(CC2CCOCC2)n2ncc3c(S(=O)(=O)C4CC4)cccc32)nc1 (stereo not drawn) [Compound 135, N-(5-cyanopyridin-2-yl)-2-(4-(cyclopropylsulfonyl)-1H-indazol-1-yl)-3-(tetrahydro-2H-pyran-4-yl)propanamide] | 398 to 1260 | 106 to 110 | –
15 | N#Cc1cnc(NC(=O)[C@H](CC2CCOCC2)n2ncc3c(S(=O)(=O)C4CC4)cccc32)s1 [Compound 136, (S)-N-(5-cyanothiazol-2-yl)-2-(4-(cyclopropylsulfonyl)-1H-indazol-1-yl)-3-(tetrahydro-2H-pyran-4-yl)propanamide] | 398 to 1260 | ≥ 111 | –
16 | N#Cc1cnc(NC(=O)[C@@H](CC2CCOCC2)n2ncc3c(S(=O)(=O)C4CC4)cccc32)s1 [Compound 137, (R)-N-(5-cyanothiazol-2-yl)-2-(4-(cyclopropylsulfonyl)-1H-indazol-1-yl)-3-(tetrahydro-2H-pyran-4-yl)propanamide] | 3980 to 12600 | ≤ 90 | –

More lines, main results first:

Row | EC50 [nM] | Emax [1] [%] | SMILES | Emax [2] [%]
17 | ≤ 316 | 106 to 110 | O=C(Nc1ncc(F)s1)C(CC1CCOCC1)n1ncc2c(S(=O)(=O)C3CC3)cc(F)cc21 (stereo not drawn) [Compound 115, 2-(4-(cyclopropylsulfonyl)-6-fluoro-1H-indazol-1-yl)-H-(5-fluorothiazol-2-yl)-3-(tetrahydro-2H-pyran-4-yl)propanamide] | –
18 | ≤ 316 | 90 to 100 | N#Cc1cc(S(=O)(=O)C2CC2)c2cnn(C(CC3CCOCC3)C(=O)Nc3ncc(F)s3)c2c1 (stereo not drawn) [Compound 120, 2-(6-cyano-4-(cyclopropylsulfonyl)-1H-indazol-1-yl)-N-(5-fluorothiazol-2-yl)-3-(tetrahydro-2H-pyran-4-yl)propanamide] | –
19 | ≤ 316 | 90 to 100 | O=C(Nc1ncc(F)s1)C(CC1CCOCC1)n1ncc2c(S(=O)(=O)C3CC3)cc(Cl)cc21 (stereo not drawn) [Compound 121, 2-(6-chloro-4-(cyclopropylsulfonyl)-1H-indazol-1-yl)-N-(5-fluorothiazol-2-yl)-3-(tetrahydro-2H-pyran-4-yl)propanamide] | –
20 | 3980 to 12600 | ≥ 111 | Cc1cc(S(=O)(=O)C2CC2)c2cnn(C(CC3CCOCC3)C(=O)Nc3ncc(F)s3)c2c1 (stereo not drawn) [Compound 122, 2-(4-(cyclopropylsulfonyl)-6-methyl-1H-indazol-1-yl)-N-(5-fluorothiazol-2-yl)-3-(tetrahydro-2H-pyran-4-yl)propanamide] | –
21 | ≤ 316 | ≥ 111 | O=C(Nc1ncc(F)s1)[C@H](CC1CCOCC1)n1ncc2c(S(=O)(=O)C3CC3)cc(F)cc21 [Compound 123, (S)-2-(4-(cyclopropylsulfonyl)-6-fluoro-1H-indazol-1-yl)-N-(5-fluorothiazol-2-yl)-3-(tetrahydro-2H-pyran-4-yl)propanamide] | –
22 | ≤ 316 | 101 to 105 | O=C(Nc1ncc(F)s1)C(CC1CCOCC1)n1ncc2c(S(=O)(=O)C3CC3)ccnc21 (stereo not drawn) [Compound 127, 2-(4-(cyclopropylsulfonyl)-1H-pyrazolo[3,4-b]pyridin-1-yl)-N-(5-fluorothiazol-2-yl)-3-(tetrahydro-2H-pyran-4-yl)propanamide] | –
23 | ≤ 316 | 90 to 100 | COc1cc(S(=O)(=O)C2CC2)c2cnn([C@@H](CC3CCOCC3)C(=O)Nc3ncc(F)s3)c2c1 [Compound 128, (S)-2-(4-(cyclopropylsulfonyl)-6-methoxy-1H-indazol-1-yl)-N-(5-fluorothiazol-2-yl)-3-(tetrahydro-2H-pyran-4-yl)propanamide] | –
24 | 3980 to 12600 | ≤ 90 | COc1cc(S(=O)(=O)C2CC2)c2cnn([C@H](CC3CCOCC3)C(=O)Nc3ncc(F)s3)c2c1 [Compound 129, (R)-2-(4-(cyclopropylsulfonyl)-6-methoxy-1H-indazol-1-yl)-N-(5-fluorothiazol-2-yl)-3-(tetrahydro-2H-pyran-4-yl)propanamide] | –
25 | ≤ 316 | 101 to 105 | O=C(Nc1ncc(F)s1)C(CC1CCOCC1)n1ncc2c(S(=O)(=O)C3CC3)cc(O)cc21 (stereo not drawn) [Compound 130, 2-(4-(cyclopropylsulfonyl)-6-hydroxy-1H-indazol-1-yl)-N-(5-fluorothiazol-2-yl)-3-(tetrahydro-2H-pyran-4-yl)propanamide] | –
26 | 1580 to 3160 | 90 to 100 | N#Cc1cc(S(=O)(=O)C2CC2)c2cnn([C@H](CC3CCOCC3)C(=O)Nc3ncc(F)s3)c2c1 [Compound 132, (R)-2-(6-cyano-4-(cyclopropylsulfonyl)-1H-indazol-1-yl)-N-(5-fluorothiazol-2-yl)-3-(tetrahydro-2H-pyran-4-yl)propanamide] | –
27 | ≤ 316 | 101 to 105 | N#Cc1cc(S(=O)(=O)C2CC2)c2cnn([C@@H](CC3CCOCC3)C(=O)Nc3ncc(F)s3)c2c1 [Compound 133, (S)-2-(6-cyano-4-(cyclopropylsulfonyl)-1H-indazol-1-yl)-N-(5-fluorothiazol-2-yl)-3-(tetrahydro-2H-pyran-4-yl)propanamide] | –
